Numbers after ± are expanded uncertainties.
Assay: xn = mol fraction of the nth substance listed
Settings: 101.3 kPa, Liquid; for viscosity: Concentric cylinders viscometry; for mass density: Vibrating tube method

CCn1cc[n+](C)c1C.O=S(=O)([N-]S(=O)(=O)C(F)(F)F)C(F)(F)F + CCOC(=O)OCC
Settings | mass density [kg/m3] | viscosity [mPa·s]
293.15 K, x1 = 0.1731 | 1150.1 ± 2.5 | 3.168 ± 0.042
293.15 K, x1 = 0.302 | 1242.2 ± 2.4 | 6.382 ± 0.08
293.15 K, x1 = 0.4028 | 1298.8 ± 2.4 | 10.53 ± 0.13
293.15 K, x1 = 0.4991 | 1343.7 ± 2.5 | 16.14 ± 0.2
293.15 K, x1 = 0.6093 | 1387 ± 2.5 | 25.06 ± 0.31
293.15 K, x1 = 0.7039 | 1418.8 ± 2.5 | 35.42 ± 0.44
293.15 K, x1 = 0.7951 | 1445.6 ± 2.5 | 48.11 ± 0.59
293.15 K, x1 = 0.8901 | 1470.6 ± 2.5 | 64.72 ± 0.81
293.15 K, x1 = 1 | 1495.8 ± 2.5 | 89.88 ± 1.3
298.15 K, x1 = 0.1731 | 1144.8 ± 2.5 | 2.871 ± 0.035
298.15 K, x1 = 0.302 | 1237.1 ± 2.4 | 5.646 ± 0.068
298.15 K, x1 = 0.4028 | 1293.7 ± 2.5 | 9.149 ± 0.11
298.15 K, x1 = 0.4991 | 1338.7 ± 2.5 | 13.79 ± 0.17
298.15 K, x1 = 0.6093 | 1382 ± 3 | 21.02 ± 0.26
298.15 K, x1 = 0.7039 | 1413.9 ± 2.5 | 29.27 ± 0.36
298.15 K, x1 = 0.7951 | 1440.8 ± 2.5 | 39.24 ± 0.48
298.15 K, x1 = 0.8901 | 1465.8 ± 2.5 | 52.12 ± 0.63
298.15 K, x1 = 1 | 1491 ± 2.5 | 71.34 ± 0.92
303.15 K, x1 = 0.1731 | 1139.5 ± 2.4 | 2.615 ± 0.032
303.15 K, x1 = 0.302 | 1232 ± 2.4 | 5.032 ± 0.061
303.15 K, x1 = 0.4028 | 1288.6 ± 2.4 | 8.021 ± 0.097
303.15 K, x1 = 0.4991 | 1333.7 ± 2.5 | 11.9 ± 0.14
303.15 K, x1 = 0.6093 | 1377.1 ± 2.5 | 17.84 ± 0.22
303.15 K, x1 = 0.7039 | 1409 ± 3 | 24.52 ± 0.3
303.15 K, x1 = 0.7951 | 1435.9 ± 2.5 | 32.49 ± 0.4
303.15 K, x1 = 0.8901 | 1461 ± 2.5 | 42.65 ± 0.52
303.15 K, x1 = 1 | 1486.3 ± 2.5 | 57.64 ± 0.7
308.15 K, x1 = 0.1731 | 1134.2 ± 2.4 | 2.394 ± 0.029
308.15 K, x1 = 0.302 | 1226.9 ± 2.4 | 4.515 ± 0.055
308.15 K, x1 = 0.4028 | 1283.6 ± 2.4 | 7.089 ± 0.085
308.15 K, x1 = 0.4991 | 1328.7 ± 2.5 | 10.37 ± 0.12
308.15 K, x1 = 0.6093 | 1372.2 ± 2.5 | 15.31 ± 0.18
308.15 K, x1 = 0.7039 | 1404.1 ± 2.5 | 20.78 ± 0.25
308.15 K, x1 = 0.7951 | 1431.1 ± 2.5 | 27.23 ± 0.33
308.15 K, x1 = 0.8901 | 1456.2 ± 2.5 | 35.38 ± 0.43
308.15 K, x1 = 1 | 1481.5 ± 2.5 | 47.26 ± 0.58
313.15 K, x1 = 0.1731 | 1128.9 ± 2.4 | 2.201 ± 0.027
313.15 K, x1 = 0.302 | 1221.7 ± 2.4 | 4.076 ± 0.049
313.15 K, x1 = 0.4028 | 1278.5 ± 2.4 | 6.312 ± 0.076
313.15 K, x1 = 0.4991 | 1323.7 ± 2.5 | 9.113 ± 0.11
313.15 K, x1 = 0.6093 | 1367.3 ± 2.5 | 13.27 ± 0.16
313.15 K, x1 = 0.7039 | 1399.3 ± 2.5 | 17.81 ± 0.21
313.15 K, x1 = 0.7951 | 1426.2 ± 2.5 | 23.1 ± 0.28
313.15 K, x1 = 0.8901 | 1451.4 ± 2.5 | 29.72 ± 0.36
313.15 K, x1 = 1 | 1476.7 ± 2.5 | 39.24 ± 0.48
318.15 K, x1 = 0.1731 | 1123.6 ± 2.4 | 2.032 ± 0.025
318.15 K, x1 = 0.302 | 1216.5 ± 2.4 | 3.7 ± 0.045
318.15 K, x1 = 0.4028 | 1273.5 ± 2.4 | 5.657 ± 0.068
318.15 K, x1 = 0.4991 | 1318.8 ± 2.5 | 8.07 ± 0.097
318.15 K, x1 = 0.6093 | 1362.4 ± 2.5 | 11.6 ± 0.14
318.15 K, x1 = 0.7039 | 1394.4 ± 2.5 | 15.41 ± 0.18
318.15 K, x1 = 0.7951 | 1421.4 ± 2.5 | 19.8 ± 0.24
318.15 K, x1 = 0.8901 | 1446.6 ± 2.5 | 25.24 ± 0.3
318.15 K, x1 = 1 | 1472 ± 2.5 | 33 ± 0.4
323.15 K, x1 = 0.1731 | 1118.3 ± 2.4 | 1.882 ± 0.023
323.15 K, x1 = 0.302 | 1211.3 ± 2.4 | 3.375 ± 0.041
323.15 K, x1 = 0.4028 | 1268.4 ± 2.4 | 5.102 ± 0.061
323.15 K, x1 = 0.4991 | 1313.8 ± 2.5 | 7.196 ± 0.086
323.15 K, x1 = 0.6093 | 1357.5 ± 2.5 | 10.22 ± 0.12
323.15 K, x1 = 0.7039 | 1389.6 ± 2.5 | 13.45 ± 0.16
323.15 K, x1 = 0.7951 | 1416.6 ± 2.5 | 17.14 ± 0.21
323.15 K, x1 = 0.8901 | 1441.8 ± 2.5 | 21.66 ± 0.26
323.15 K, x1 = 1 | 1467.2 ± 2.5 | 28.05 ± 0.34
328.15 K, x1 = 0.1731 | 1112.9 ± 2.5 | 1.75 ± 0.022
328.15 K, x1 = 0.302 | 1206.2 ± 2.5 | 3.098 ± 0.037
328.15 K, x1 = 0.4028 | 1263.4 ± 2.4 | 4.633 ± 0.055
328.15 K, x1 = 0.4991 | 1308.9 ± 2.5 | 6.468 ± 0.077
328.15 K, x1 = 0.6093 | 1352.5 ± 2.5 | 9.095 ± 0.11
328.15 K, x1 = 0.7039 | 1384.7 ± 2.5 | 11.86 ± 0.14
328.15 K, x1 = 0.7951 | 1411.8 ± 2.5 | 15 ± 0.18
328.15 K, x1 = 0.8901 | 1437 ± 2.5 | 18.81 ± 0.22
328.15 K, x1 = 1 | 1462.4 ± 2.5 | 24.16 ± 0.29

— the NIST ThermoML archive (doi:10.1016/j.jct.2018.10.015)
